Measured values published in US20190017060A1, “MANIPULATION OF PROANTHOCYANIDIN (PA) COMPOSITION BY AFFECTING ANTHOCYANIDIN SYNTHASE (ANS) AND LEUCOANTHOCYANIDIN DIOXYGENASE (LDOX)” (University of North Texas, priority 2017, published 2019).

Key:
Type in all cases: biochemical, Medicago truncatula
[1] = test system: LDOX; test: Enzyme assay with recombinant LDOX protein, HPLC detection of cyanidin; conditions: 50 μg recombinant protein, 1 h at 30° C., HPLC at 530 nm; flavan-3-ols at 200 μM
Experimental: (§1) The full length ANS and LDOX cDNAs were cloned into pMal-c5x vector (New England Biolabs) at the SalI and BamHI site and BamHI and EcoRI site, respectively. The expression constructs were transformed into E. coli strain NEB® Express Competent E. coli (New England Biolabs). Transformed bacteria were grown in LB medium supplemented with 0.2% glucose to OD 600 of 0.5, and IPTG was added at 0.3 mM to induce protein expression. Bacteria were harvested after 4 h induction. ANS and LDOX proteins were purified with amylose resin (NEB, E8021) following the manufacturer's protocol. Briefly, bacteria were lysed by sonication at 4° C. in extraction buffer (20 mM Tris pH 7.0, 200 mM NaCl, 1 mM DTT). The bacterial lysates were centrifuged at 12,000 g for 15 min at 4° C. The supernatants were loaded on amylose resin which was washed with wash buffer (extraction buffer). Finally, proteins were eluted by elution buffer (20 mM Tris pH 7.0, 200 mM NaCl, 1 mM DTT, 10 mM maltose). Purified proteins were concentrated with an Amicon® Ultra-4 Centrifugal Filter (Millipore) and aliquoted to store at −80° C.
(§2) It was previously reported that ANS can convert leucocyanidin to cyanidin. To confirm this, separate enzyme reactions were set up for ANS and LDOX by incubating with leucocyanidin according to Tanner et al. The enzyme reaction was prepared in 100 μL volume including 20 mM potassium phosphate buffer (pH 7.0), 1 mM 2-oxoglutarate, 0.4 mM ammonium iron(II) sulfate, 4 mM sodium ascorbate, 100 mM NaCl, 10 mM maltose, 5 mM DTT and 50 μg recombinant proteins. The reactions were carried out for 1 h at 30° C. and terminated by addition of 1 μL 36% HCl and 10 μL 100% methanol. The reaction mixture was centrifuged for 5 min at 13,000 rpm at 4° C. and analyzed by HPLC. All reverse-phase HPLC analyses were performed on an Agilent HP1100 HPLC using the following gradient: solvent A (1% phosphoric acid) and B (acetonitrile) at 1 ml/min flow rate: 0-5 min, 5% B; 5-10 min, 5-10% B; 10-25 min, 10-17% B; 25-30 min, 17-23% B; 30-65 min, 23-50% B; 65-79 min, 50-100% B; 79-80 min, 100-5% B. Data were collected at 280 and 530 nm for flavonoids and anthocyanidins, respectively. Identifications were based on chromatographic behavior and UV spectra compared with those of authentic standards.
(§3) Since catechin was highly accumulated in the ldox mutant, it was tested whether ANS or LDOX protein can react with (+)-catechin (2R, 3S), which is stated as a naturally synthesized monomeric unit of PAs. The same enzyme reaction was set up but using 200 μM of (+)-catechin as substrate instead of leucocyanidin. Reactions without 2-oxoglutarate (-oxo) were run as negative controls. […] The enzyme reaction was performed with (+)-catechin as substrate and recombinant ANS or LDOX protein. Arrowhead indicates the peak for cyanidin (Cy) standard. Reactions without 2-oxoglutarate were run as negative controls and are denoted as -oxo. […] The enzyme assay was performed with (−)-catechin, (−)-epicatechin or (+)-epicatechin as substrate and purified recombinant ANS or LDOX protein. The substrate in each reaction is indicated. (−)-cat, (−)-catechin; (−)-epi, (−)-epicatechin; (+)-epi, (+)-epicatechin. […] The gray arrow denotes the catalyzed reaction in vitro. The proteins used are indicated in each chromatogram.

[2] = test system: ANS; test: Enzyme assay with recombinant ANS protein, HPLC detection of cyanidin; conditions: 50 μg recombinant protein, 1 h at 30° C., HPLC at 530 nm; flavan-3-ols at 200 μM
Experimental: as §1, §2, §3

[3] = test system: ANS and ANR proteins; test: Combined enzyme reaction of ANS with ANR; conditions: 200 μM substrate, 10 mM NADPH, 50 μg ANS and ANR proteins, HPLC at 280 nm
Experimental: as §2
(§4) Next, the combined reaction of ANS or LDOX with ANR was tested to check if (+)-catechin can be converted to (−)-epicatechin, which is the almost exclusive monomer unit of PA polymers in Medicago truncatula. […]

[4] = test system: LDOX and ANR proteins; test: Combined enzyme reaction of LDOX with ANR; conditions: 200 μM substrate, 10 mM NADPH, 50 μg LDOX and ANR proteins, HPLC at 280 nm
Experimental: as §2, §4

Row | Molecule | in vitro conversion of substrate to cyanidin by LDOX [1] | in vitro conversion of substrate to cyanidin by ANS [2] | (+)-catechin converted to epicatechin [3] | (+)-catechin converted to epicatechin [4]
1 | Oc1cc(O)c2c(c1)OC(c1ccc(O)c(O)c1)C(O)C2O (stereo not drawn) [leucocyanidin] | catalyzed in vitro conversion of leucocyanidin to cyanidin | catalyzed in vitro conversion of leucocyanidin to cyanidin | – | –
2 | (−)-catechin | No cyanidin generation was detected | No cyanidin generation was detected | – | –
3 | Oc1cc(O)c2c(c1)O[C@H](c1ccc(O)c(O)c1)[C@@H](O)C2 [(+)-catechin] | catalyze the in vitro conversion of (+)-catechin to cyanidin | catalyze the in vitro conversion of (+)-catechin to cyanidin | more than 70% | more than 70%
4 | Oc1cc(O)c2c(c1)O[C@H](c1ccc(O)c(O)c1)[C@H](O)C2 [(−)-epicatechin] | No cyanidin generation was detected | No cyanidin generation was detected | – | –
5 | Oc1cc(O)c2c(c1)O[C@@H](c1ccc(O)c(O)c1)[C@@H](O)C2 [(+)-epicatechin] | No cyanidin generation was detected | No cyanidin generation was detected | – | –
